Measured values taken from patent publication US11104690B2, “Indazole derivatives useful as inhibitors of diacylglyceride O-acyltransferase 2” (Merck Sharp & Dohme Corp., priority 2016, dated 2021).

What follows are molecules tested against Human DGAT2 (Homo sapiens (Human), UniProt Q96PD7) (assay: DGAT2 Enzymatic Activity Assay (triolein formation, LC/MS/MS)). Details: hDGAT2 Sf-9 membrane prep; 25 μM diolein, 10 μM oleoyl-CoA; room temperature.
Type: biochemical
Description: Sf-9 insect cells were maintained in Grace's insect cell culture medium with 10% heated-inactivated fetal bovine serum, 1% Pluronic F-68 and 0.14 μg/m Kanamycine sulfate in Erlenmeyer flasks at 28° C. in a shaker incubator. After infection with untagged hDGAT2 baculovirus at multiplicity of infection (MOI) 0.1 for 48 hours, cells were harvested. Cell pellets were suspended in buffer containing 10 mM Tris-HC (pH 7.5), 1 mM EDTA (pH 8.0), 250 mM sucrose and Complete Protease Inhibitor Cocktail (Roche Diagnostics Corp., Indianapolis, Ill.), and sonicated on ice. Membrane fractions were isolated by ultracentrifugation (100,000×g pellet), resuspended in the same buffer, and frozen (−80° C.) for later use. The protein concentration was determined with the BCA Protein Assay kit (Pierce Biotechnology Inc., Rockford, Ill.). Expression of protein levels was analyzed by immunoblotting with goat polyclonal DGAT2 antibody C-15 and donkey anti-goat IgG HRP (Santa Cruz Biotechnology, Inc., Santa Cruz, Calif.) followed by detection with ECL reagent (GE Healthcare, Piscataway, N.J.).
LC/MS/MS analyses were performed using Thermal Fisher's LX4-TSQ Vantage system. This system consists of an Agilent binary high-performance liquid chromatography (HPLC) pumps and a TSQ Vantage triple quadrupole MS/MS instrument. For each sample, 2 μL samples from the top organic layer of in-plate liquid-liquid extraction were injected onto a Thermo Betabasic C4 column (2.1 mm×20 mm, 5 μm particle size). The samples were then eluted using the following conditions; mobile phase: MeOH/water with 0.1% ammonium format=92/8 (v/v), flow rate: 1 mL/min, temperature: 25 C. Data was acquired in positive mode using a heated electrospray ionization (HESI) interface. The operational parameters for the TSQ Vantage MS/MS instrument were a spray voltage of 3000 V, capillary temperature of 280° C., vaporizer temperature 400° C., shealth gas 60 arbitrary unit, Aux gas 40 arbitrary units, S-lens 113 and collision gas 0.16 Pascals. […] (SRM) chromatograms of triolein (Q1: 902.9>Q3:602.3) and internal standard ([…]) were collected for 40 sec. The peak area was integrated by Xcalibur Quan software. The ratio between the triolein generated in the reaction and spiked in internal standard was used to generate percentage inhibition and IC50 values. Compound percentage inhibition was calculated by the following formula: Inhibition %=1−[(compound response−low control)/(high control−low control)]×100%. Potent compounds were titrated and IC50 were calculated by 4 parameter sigmoidal curve fitting formula.
DGAT2 activity was determined by measuring the amount of enzymatic product triolein (1,2,3-Tri(cis-9-octadecenoyl)glycerol) using the membrane prep mentioned above. The assay was carried out in deep well 384 plates in a final volume of 40 μL at room temperature. The assay mixture contained the following: assay buffer (100 mM Tris.Cl, pH 7.0, 20 mM MgCl2, 5% ethanol), 25 μM of diolein, 10 μM of oleoyl-CoA and 10 ng/μL of DGAT2 membrane.

Human DGAT2, sequence (Q96PD7 whole entry): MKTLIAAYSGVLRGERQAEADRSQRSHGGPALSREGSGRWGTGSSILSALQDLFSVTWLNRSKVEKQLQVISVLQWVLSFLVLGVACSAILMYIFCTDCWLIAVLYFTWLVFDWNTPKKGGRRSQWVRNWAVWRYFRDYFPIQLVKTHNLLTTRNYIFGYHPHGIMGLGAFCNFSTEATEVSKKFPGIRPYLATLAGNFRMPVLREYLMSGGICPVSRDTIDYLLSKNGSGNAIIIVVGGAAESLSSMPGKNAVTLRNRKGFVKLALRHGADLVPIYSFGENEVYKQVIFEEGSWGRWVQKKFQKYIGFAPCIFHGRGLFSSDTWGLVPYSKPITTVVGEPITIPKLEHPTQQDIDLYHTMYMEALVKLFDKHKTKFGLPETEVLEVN

Structure (SMILES)	IC50 [nM]
O=C(NC1CCS(=O)(=O)C1)c1ccc2c(-c3ccccc3Cl)nn(-c3ccccn3)c2c1 (single isomer, unassigned) [Example 175-A, 3-(2-chlorophenyl)-N-(1,1-dioxidotetrahydrothiophen-3-yl)-1-pyridin-2-yl-1H-indazole-6-carboxamide]	338
CC1(NC(=O)c2ccc3c(-c4cncc(C#N)c4)nn(-c4ccc(F)cc4)c3c2)CCS(=O)(=O)C1 (single isomer, unassigned) [Example 146-A, 3-(5-cyanopyridin-3-yl)-1-(4-fluorophenyl)-N-(3-methyl-1,1-dioxidotetrahydrothiophen-3-yl)-1H-indazole-6-carboxamide]	63
CC(C)[C@H](NC(=O)c1ccc2c(-c3ccccc3Cl)nn(-c3ccc(F)cc3)c2c1)C(N)=O [Example 95, N-[(1S)-1-carbamoyl-2-methylpropyl]-3-(2-chlorophenyl)-1-(4-fluorophenyl)-1H-indazole-6-carboxamide]	606
O=C(NCCS(=O)(=O)Nc1cccnc1)c1ccc2c(-c3ccccc3Cl)nn(-c3ccc(F)cc3)c2c1 [Example 60, 3-(2-chlorophenyl)-1-(4-fluorophenyl)-N-[2-(pyridin-3-ylsulfamoyl)ethyl]-1H-indazole-6-carboxamide]	16
CC1(NC(=O)c2ccc3c(-c4cccc(OC(F)F)c4)nn(-c4ccc(F)cc4)c3c2)CCS(=O)(=O)C1 (single isomer, unassigned) [Example 143-A, 3-[3-(difluoromethoxy)phenyl]-1-(4-fluorophenyl)-N-(3-methyl-1,1-dioxidotetrahydrothiophen-3-yl)-1H-indazole-6-carboxamide]	1.6
N#Cc1cccc(-c2nn(-c3ccc(F)cn3)c3cc(C(=O)N[C@H]4CCS(=O)(=O)C4)ccc23)c1 [177-B]	86
CC1(NC(=O)c2ccc3c(-c4cc(C(F)(F)F)ccc4Cl)nn(-c4ccc(F)cc4)c3c2)CCS(=O)(=O)C1 (single isomer, unassigned) [Example 160-A, 3-[2-chloro-5-(trifluoromethyl)phenyl]-1-(4-fluorophenyl)-N-(3-methyl-1,1-dioxidotetrahydrothiophen-3-yl)-1H-indazole-6-carboxamide]	6.9
COc1cccc(-c2nn(-c3ccc(F)cc3)c3cc(C(=O)NC4(C)CCS(=O)(=O)C4)ccc23)c1 (single isomer, unassigned) [Example 144-A, 1-(4-fluorophenyl)-3-(3-methoxyphenyl)-N-(3-methyl-1,1-dioxidotetrahydrothiophen-3-yl)-1H-indazole-6-carboxamide]	5.8
COc1ncc(Cl)cc1-c1nn(-c2ccc(F)cc2)c2cc(C(=O)NC3(C)CCS(=O)(=O)C3)ccc12 (single isomer, unassigned) [Example 142-A, 3-(5-chloro-2-methoxypyridin-3-yl)-1-(4-fluorophenyl)-N-(3-methyl-1,1-dioxidotetrahydrothiophen-3-yl)-1H-indazole-6-carboxamide]	430
O=C(NCc1cncnc1)c1ccc2c(-c3ccccc3Cl)nn(-c3ccc(F)cc3)c2c1 [Example 38, 3-(2-chlorophenyl)-1-(4-fluorophenyl)-N-(pyrimidin-5-ylmethyl)-1H-indazole-6-carboxamide]	368
CC(C)(C)NC(=O)c1ccc2c(-c3ccccc3Cl)nn(-c3ccc(F)cc3)c2c1 [Example 15, N-tert-butyl-3-(2-chlorophenyl)-1-(4-fluorophenyl)-1H-indazole-6-carboxamide]	77
O=C(NC1CCC(O)C1)c1ccc2c(-c3ccccc3Cl)nn(-c3ccc(F)cc3)c2c1 (racemic) [Example 83, 3-(2-chlorophenyl)-1-(4-fluorophenyl)-N-(3-hydroxycyclopentyl)-1H-indazole-6-carboxamide]	276
Cc1cccc(-c2nn(-c3ccc(F)cc3)c3cc(C(=O)NC4(C)CCS(=O)(=O)C4)ccc23)c1 (single isomer, unassigned) [Example 156-A, 1-(4-fluorophenyl)-N-(3-methyl-1,1-dioxidotetrahydrothiophen-3-yl)-3-(3-methylphenyl)-1H-indazole-6-carboxamide]	11
CC(C)(NC(=O)c1ccc2c(-c3ccccc3Cl)nn(-c3ccc(F)cc3)c2c1)c1ccc(C(F)(F)F)nc1 [Example 28, 3-(2-chlorophenyl)-1-(4-fluorophenyl)-N-{1-methyl-1-[6-(trifluoromethyl)pyridin-3-yl]ethyl}-1H-indazole-6-carboxamide]	93
CC(C)(C)OC(=O)N1CC[C@H](NC(=O)c2ccc3c(-c4ccccc4Cl)nn(-c4ccc(F)cc4)c3c2)C1 [Example 100, tert-butyl (3S)-3-({[3-(2-chlorophenyl)-1-(4-fluorophenyl)-1H-indazol-6-yl]carbonyl}amino)pyrrolidine-1-carboxylate]	12
CC(C)[C@@H](CO)NC(=O)c1ccc2c(-c3cccc(C4CC4)c3)nn(-c3ccc(F)cn3)c2c1 [Example 124, 3-(3-cyclopropylphenyl)-1-(5-fluoropyridin-2-yl)-N-[(1S)-1-(hydroxymethyl)-2-methylpropyl]-1H-indazole-6-carboxamide]	4.4
CC1(NC(=O)c2ccc3c(-c4ccccc4Cl)nn(C4CCCCO4)c3c2)CCS(=O)(=O)C1 (centres unmarked) [Example 191, 3-(2-Chlorophenyl)-N-(3-methyl-1,1-dioxidotetrahydrothiophen-3-yl)-1-(tetrahydro-2H-pyran-2-yl)-1H-indazole-6-carboxamide]	182

Second part, the molecule after the results:

IC50 [nM]	Structure (SMILES)
75	Cc1ncc([C@H](C)NC(=O)c2ccc3c(-c4ccccc4Cl)nn(-c4ccc(F)cc4)c3c2)cn1 [Example 34, 3-(2-chlorophenyl)-1-(4-fluorophenyl)-N-[(1S)-1-(2-methylpyrimidin-5-yl)ethyl]-1H-indazole-6-carboxamide]
15	O=C(NC1(CO)CCC1)c1ccc2c(-c3ccccc3Cl)nn(-c3ccc(F)cc3)c2c1 [Example 88, 3-(2-chlorophenyl)-1-(4-fluorophenyl)-N-[1-(hydroxymethyl)cyclobutyl]-1H-indazole-6-carboxamide]
505	O=C(NC1CCOCC1)c1ccc2c(-c3ccccc3Cl)nn(-c3ccc(F)cc3)c2c1 [Example 86, 3-(2-chlorophenyl)-1-(4-fluorophenyl)-N-(tetrahydro-2H-pyran-4-yl)-1H-indazole-6-carboxamide]
607	CC(C)(O)C1(NC(=O)c2ccc3c(-c4ccccc4Cl)nn(-c4ccc(F)cc4)c3c2)CCOCC1 [Example 70, 3-(2-chlorophenyl)-1-(4-fluorophenyl)-N-[4-(1-hydroxy-1-methylethyl)tetrahydro-2H-pyran-4-yl]-1H-indazole-6-carboxamide]
310	C[C@@H](CO)NC(=O)c1ccc2c(-c3ccccc3Cl)nn(-c3ccc(F)cc3)c2c1 [Example 68, 3-(2-chlorophenyl)-1-(4-fluorophenyl)-N-[(1S)-2-hydroxy-1-methylethyl]-1H-indazole-6-carboxamide]
22	O=C(NCCS(=O)(=O)Nc1ccccc1)c1ccc2c(-c3ccccc3Cl)nn(-c3ccc(F)cc3)c2c1 [Example 56, 3-(2-chlorophenyl)-1-(4-fluorophenyl)-N-[2-(phenylsulfamoyl)ethyl]-1H-indazole-6-carboxamide]
532	O=C(NC(CCN1CCOCC1)c1ccccc1)c1ccc2c(-c3ccccc3Cl)nn(-c3ccc(F)cc3)c2c1 (racemic) [Example 109, 3-(2-chlorophenyl)-1-(4-fluorophenyl)-N-(3-morpholin-4-yl-1-phenylpropyl)-1H-indazole-6-carboxamide]
654	O=C(NCc1ccncc1)c1ccc2c(-c3ccccc3Cl)nn(-c3ccc(F)cc3)c2c1 [Example 33, 3-(2-chlorophenyl)-1-(4-fluorophenyl)-N-(pyridin-4-ylmethyl)-1H-indazole-6-carboxamide]
184	C[C@H](CS(N)(=O)=O)NC(=O)c1ccc2c(-c3ccccc3Cl)nn(-c3ccc(F)cc3)c2c1 [Example 51, 3-(2-chlorophenyl)-1-(4-fluorophenyl)-N-[(1R)-1-methyl-2-sulfamoylethyl]-1H-indazole-6-carboxamide]
